# In patent US8969335B2, “Benzonitrile derivatives as kinase inhibitors” (MERCK PATENT GmbH, priority 2011, dated 2015):
# Tests used:
# IKKε = IKKε (Homo sapiens (Human), UniProt Q14164); test: IKKε kinase assay (384-well flashplate assay); assay type: biochemical; conditions: 1 nM IKKε, 10 μM ATP, 30° C., 2 hours; read-out: IKKε enzyme assay IC50
# Summary of the method: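 Recombinant IKKε (1 nM) phosphorylates biotinylated IκBα(19-42) peptide (800 nM) with 10 μM ATP spiked with ^33P-ATP, 2 h at 30° C in MOPS buffer pH 7.5. Stopped with EDTA, captured on flashplate, radioactivity counted; nonspecific signal defined with 3 μM BX-795; IC50 derived.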
# [1] = test system: TBK1 + IKKε (phospho-IRF3 @ Ser 386, MDA-MB-468 cells); test: TBK1 + IKKε cell assay: dose response inhibition of phospho-IRF3 @ Ser 386 in MDA-MB-468 cells; assay type: cell-based; conditions: Homo sapiens, poly(I:C) stimulation, nuclear phospho-IRF3, read-out: TBK1 + IKKε cell assay IC50
# [2] = target: TANK binding kinase (TBK1) (Homo sapiens (Human), UniProt Q9UHD2); test: TBK1 enzyme assay (384-well flashplate kinase assay); assay type: biochemical; conditions: 0.6 nM TBK1, 10 μM ATP, 30° C., 120 min
# TANK binding kinase (TBK1), sequence (Q9UHD2 whole entry): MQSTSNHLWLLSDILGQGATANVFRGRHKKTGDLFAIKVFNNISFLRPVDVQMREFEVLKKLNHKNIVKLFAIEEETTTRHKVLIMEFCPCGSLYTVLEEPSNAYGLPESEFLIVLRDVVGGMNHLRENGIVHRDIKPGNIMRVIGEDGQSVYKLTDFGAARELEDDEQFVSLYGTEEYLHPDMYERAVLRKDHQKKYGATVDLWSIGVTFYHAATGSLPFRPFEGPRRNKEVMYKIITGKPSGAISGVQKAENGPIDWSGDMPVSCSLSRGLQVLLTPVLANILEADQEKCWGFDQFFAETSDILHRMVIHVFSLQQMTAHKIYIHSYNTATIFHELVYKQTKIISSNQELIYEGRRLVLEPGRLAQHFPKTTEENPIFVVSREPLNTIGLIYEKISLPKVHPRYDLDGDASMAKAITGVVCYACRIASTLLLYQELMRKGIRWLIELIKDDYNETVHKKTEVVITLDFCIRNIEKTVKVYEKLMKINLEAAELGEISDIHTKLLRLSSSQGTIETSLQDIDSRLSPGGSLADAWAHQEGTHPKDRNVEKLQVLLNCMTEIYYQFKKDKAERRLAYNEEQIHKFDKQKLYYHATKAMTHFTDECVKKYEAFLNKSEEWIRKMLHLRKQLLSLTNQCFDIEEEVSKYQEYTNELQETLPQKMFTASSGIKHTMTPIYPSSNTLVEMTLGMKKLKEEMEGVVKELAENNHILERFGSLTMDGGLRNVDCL
# IKKε, sequence (Q14164 whole entry): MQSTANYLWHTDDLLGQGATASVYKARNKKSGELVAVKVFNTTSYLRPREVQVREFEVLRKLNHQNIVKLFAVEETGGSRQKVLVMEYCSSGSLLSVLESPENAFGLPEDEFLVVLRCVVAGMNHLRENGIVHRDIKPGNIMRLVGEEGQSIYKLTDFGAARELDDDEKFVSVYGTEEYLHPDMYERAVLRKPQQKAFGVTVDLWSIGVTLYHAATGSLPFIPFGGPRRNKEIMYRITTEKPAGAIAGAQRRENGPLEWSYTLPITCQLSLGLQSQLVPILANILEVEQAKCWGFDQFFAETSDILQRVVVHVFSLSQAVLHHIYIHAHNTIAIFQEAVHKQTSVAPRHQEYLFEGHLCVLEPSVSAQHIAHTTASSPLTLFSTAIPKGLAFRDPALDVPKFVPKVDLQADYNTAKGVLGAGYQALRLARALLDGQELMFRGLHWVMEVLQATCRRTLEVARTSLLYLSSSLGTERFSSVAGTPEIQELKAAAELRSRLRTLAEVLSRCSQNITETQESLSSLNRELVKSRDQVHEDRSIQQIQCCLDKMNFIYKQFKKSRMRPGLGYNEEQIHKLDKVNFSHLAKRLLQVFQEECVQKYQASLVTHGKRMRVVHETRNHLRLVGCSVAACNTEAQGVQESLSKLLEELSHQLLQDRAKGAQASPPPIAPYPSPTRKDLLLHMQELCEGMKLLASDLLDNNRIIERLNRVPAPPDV
IC50 (IKKε) [nM],IC50 [1] [nM],IC50 [2] [nM],SMILES
8,890,7,"COCCn1cc(Nc2nccc(-c3ccc(OCC4CCC4)c(C#N)c3)n2)cn1 [Compound A103, 2-cyclobutylmethoxy-5-{2-[1-(2-methoxyethyl)-1H-pyrazol-4-ylamino]pyrimidin-4-yl}benzonitrile]"
6,230,6,"N#Cc1cc(-c2ccnc(Nc3cnn(C4CCNCC4)c3)n2)ccc1OC1CCOCC1 [Compound A64, 5-[2-(1-piperidin-4-yl-1H-pyrazol-4-ylamino)pyrimidin-4-yl]-2-(tetrahydropyran-4-yloxy)-benzonitrile]"
88,6700,120,"N#Cc1cc(-c2ccnc(Nc3cnn(CCC4CCN(C(=O)CO)CC4)c3)c2)ccc1OC1CCOCC1 [Compound A29, 5-[2-(1-{2-[1-(2-Hydroxyacetyl)piperidin-4-yl]ethyl}-1H-pyrazol-4-ylamino)pyridin-4-yl]-2-(tetrahydropyran-4-yloxy)benzonitrile]"
21,6100,27,"COc1nc(Nc2nccc(-c3ccc(OC4CCOCC4)c(C#N)c3)n2)ccc1C1=CCNCC1 [Compound A76, 5-[2-(2-methoxy-1′,2′,3′,6′-tetrahydro[3,4′]bipyridinyl-6-ylamino)pyrimidin-4-yl]-2-(tetrahydropyran-4-yloxy)benzonitrile]"
120,2900,54,"N#Cc1cc(-c2ccnc(Nc3ccc(N4CCOCC4)cn3)c2)ccc1OCC1CCC1 [Compound A113, 2-cyclobutylmethoxy-5-[2-(5-morpholin-4-ylpyridin-2-ylamino)pyridin-4-yl]benzonitrile]"
7,840,10,"N#Cc1cc(-c2ccnc(Nc3cnc(C4CCNCC4)cn3)c2)ccc1OC1CCOCC1 [Compound A72, 5-[2-(5-piperidin-4-ylpyrazin-2-ylamino)pyridin-4-yl]-2-(tetrahydropyran-4-yloxy)benzonitrile]"
150,9600,100,"N#Cc1cc(-c2ccnc(Nc3cnn(CCN4CCOCC4)c3)c2)ccc1OC1CCOCC1 [Compound A22, 5-{2-[1-(2-Morpholin-4-ylethyl)-1H-pyrazol-4-ylamino]pyridin-4-yl}-2-(tetrahydropyran-4-yloxy)benzonitrile]"
6,2100,5,"CN1CCC(c2ccnc(Nc3cc(-c4ccc(OC5CCOCC5)c(C#N)c4)ccn3)c2)CC1 [Compound A78, 5-[2-(1′-methyl-1′,2′,3′,4′,5′,6′-hexahydro-[4,4′]bipyridinyl-2-ylamino)pyridin-4-yl]-2-(tetrahydropyran-4-yloxy)benzonitrile]"
1,1600,2,"N#Cc1cc(-c2ccnc(Nc3cc(C4CCNCC4)ccn3)c2)ccc1OC1CCOCC1 [Compound A74, 5-[2-(1′,2′,3′,4′,5′,6′-hexahydro-[4,4′]bipyridinyl-2-ylamino)pyridin-4-yl]-2-(tetrahydropyran-4-yloxy)benzonitrile]"
4,420,6,"N#Cc1cc(-c2ccnc(Nc3cnn(C[C@H]4C[C@@H]4CO)c3)n2)ccc1OC1CCOCC1 [Compound A67, 5-{2-[1-((1S,2S)-2-hydroxymethylcyclopropylmethyl)-1H-pyrazol-4-ylamino]pyrimidin-4-yl}-2-(tetrahydropyran-4-yloxy)benzonitrile]"
110,2900,97,"Cn1ccc(Nc2cc(-c3ccc(OC4CCOCC4)c(C#N)c3)ccn2)n1 [Compound A5, 5-[2-(1-Methyl-1H-pyrazol-3-ylamino)pyridin-4-yl]-2-(tetrahydropyran-4-yloxy)benzonitrile]"
98,1300,88,"N#Cc1cc(-c2ccnc(Nc3ccc(N4CCOCC4)nn3)c2)ccc1OC1CCOCC1 [Compound A90, 5-[2-(6-morpholin-4-ylpyridazin-3-ylamino)pyridin-4-yl]-2-(tetrahydropyran-4-yloxy)benzonitrile]"
40,5400,24,"N#Cc1cc(-c2ccnc(Nc3cncc(C4CCNCC4)n3)c2)ccc1OC1CCOCC1 [Compound A96, 5-[2-(6-piperidin-4-ylpyrazin-2-ylamino)pyridin-4-yl]-2-(tetrahydropyran-4-yloxy)benzonitrile]"
38,6600,34,"Cc1cc(Nc2cc(-c3ccc(OC4CCOCC4)c(C#N)c3)ccn2)no1 [Compound A4, 5-[2-(5-Methylisoxazol-3-ylamino)pyridin-4-yl]-2-(tetrahydropyran-4-yloxy)benzonitrile]"
74,23000,280,"N#Cc1cc(-c2ccnc(Nc3cnn(C4CCNC4)c3)c2)ccc1OC1CCOCC1 (stereo not drawn) [Compound A28, 5-[2-(1-Pyrrolidin-3-yl-1H-pyrazol-4-ylamino)pyridin-4-yl]-2-(tetrahydropyran-4-yloxy)benzonitrile]"
8,390,5,"N#Cc1cc(-c2ccnc(Nc3cnc(C4CCOCC4)cn3)c2)ccc1OC1CCOCC1 [Compound A98, 2-(tetrahydropyran-4-yloxy)-5-{2-[5-(tetrahydropyran-4-yl)pyrazin-2-yl-amino]pyridin-4-yl}benzonitrile]"
25,1300,30,"N#Cc1cc(-c2ccnc(Nc3cc(C4CC4)n[nH]3)c2)ccc1OC1CCOCC1 [Compound A12, 5-[2-(5-Cyclopropyl-2H-pyrazol-3-ylamino)pyridin-4-yl]-2-(tetrahydropyran-4-yloxy)benzonitrile]"
20,960,83,"CN1CCC(n2cc(Nc3cc(-c4ccc(OC5CCOCC5)c(C#N)c4)ccn3)cn2)CC1 [Compound A2, 5-{2-[1-(1-Methylpiperidin-4-yl)-1H-pyrazol-4-yl-amino]pyridin-4-yl}-2-(tetrahydropyran-4-yloxy)benzonitrile]"
45,1200,23,"N#Cc1cc(-c2ccnc(Nc3ccc(N4CCOCC4)cn3)c2)ccc1OCC1CC1 [Compound A108, 2-cyclopropylmethoxy-5-[2-(5-morpholin-4-ylpyridin-2-ylamino)pyridin-4-yl]benzonitrile]"
5,440,3,"N#Cc1cc(-c2ccnc(Nc3cnn([C@H]4CC[C@H](O)CC4)c3)n2)ccc1OC1CCOCC1 [Compound A101, 5-{2-[1-(4-hydroxycyclohexyl)-1H-pyrazol-4-ylamino]pyrimidin-4-yl}-2-(tetrahydropyran-4-yloxy)benzonitrile]"
8,2300,32,"N#Cc1cc(-c2ccnc(Nc3cccc(C4CCNCC4)n3)c2)ccc1OC1CCOCC1 [Compound A91, 5-[2-(1′,2′,3′,4′,5′,6′-hexahydro-[2,4′]bipyridinyl-6-ylamino)pyridin-4-yl]-2-(tetrahydropyran-4-yloxy)benzonitrile]"
100,3000,120,"N#Cc1cc(-c2ccnc(Nc3ccc(-c4cn[nH]c4)cn3)c2)ccc1OC1CCOCC1 [Compound A9, 5-{2-[5-(1H-Pyrazol-4-yl)pyridin-2-ylamino]pyridin-4-yl}-2-(tetrahydropyran-4-yloxy)benzonitrile]"
18,980,14,"N#Cc1cc(-c2ccnc(Nc3cnn(CCO)c3)n2)ccc1OCC1CCC1 [Compound A94, 2-cyclobutylmethoxy-5-{2-[1-(2-hydroxyethyl)-1H-pyrazol-4-ylamino]pyrimidin-4-yl}benzonitrile]"
8,320,6,"N#Cc1cc(-c2ccnc(Nc3cnc(CO)cn3)c2)ccc1OC1CCOCC1 [Compound A99, 5-[2-(5-hydroxymethylpyrazin-2-ylamino)pyridin-4-yl]-2-(tetrahydropyran-4-yloxy)benzonitrile]"
89,4800,110,"N#Cc1cc(-c2ccnc(Nc3cnn(CC4CC4C#N)c3)c2)ccc1OC1CCOCC1 (stereo not drawn) [Compound A24, 5-{2-[1-(2-Cyanocyclopropylmethyl)-1H-pyrazol-4-ylamino]pyridin-4-yl}-2-(tetrahydropyran-4-yloxy)benzonitrile]"
10,270,8,"N#Cc1cc(-c2ccnc(Nc3cnn([C@H]4CC[C@@H](O)CC4)c3)n2)ccc1OC1CCOCC1 [Compound A73, 5-{2-[1-(4-hydroxycyclohexyl)-1H-pyrazol-4-ylamino]pyrimidin-4-yl}-2-(tetrahydropyran-4-yloxy)benzonitrile]"
30,11000,50,"N#Cc1cc(-c2ccnc(Nc3ccn(C4CCNCC4)n3)c2)ccc1OCC1CC1 [Compound A107, 2-cyclopropylmethoxy-5-[2-(1-piperidin-4-yl-1H-pyrazol-3-ylamino)pyridin-4-yl]benzonitrile]"
